Legend:
[1] = target: Wee1-like protein kinase 2 (Homo sapiens) (UniProt P0C1S8); conditions: Compound concentration 1000.0 nM
[2] = target: Receptor tyrosine-protein kinase erbB-3 (Homo sapiens) (UniProt P21860); conditions: Compound concentration 1000.0 nM
[3] = target: Mast/stem cell growth factor receptor Kit (Homo sapiens) (UniProt P10721); conditions: Compound concentration 1000.0 nM
[4] = target: Phosphatidylinositol 4-kinase beta (Homo sapiens) (UniProt Q9UBF8); conditions: Compound concentration 1000.0 nM
[5] = target: Cyclin-dependent kinase 3 (Homo sapiens) (UniProt Q00526); conditions: Compound concentration 1000.0 nM
[6] = target: Cyclin-dependent kinase-like 5 (Homo sapiens) (UniProt O76039); conditions: Compound concentration 1000.0 nM
[7] = tested on: Receptor-type tyrosine-protein kinase FLT3 (Homo sapiens), P36888 [K663Q]; conditions: Compound concentration 1000.0 nM
[8] = target: Serine/threonine-protein kinase Nek1 (Homo sapiens) (UniProt Q96PY6); conditions: Compound concentration 1000.0 nM
[9] = target: Ribosomal protein S6 kinase alpha-3 (Homo sapiens) (UniProt P51812); conditions: Compound concentration 1000.0 nM
[10] = target: GABA-A receptor; anion channel (Rattus norvegicus) (UniProt O09028+P15431+P18506+P18508+P19969+P20236+P23574+P23576+P28471+P28473+P30191+P62813+P63079+P63138+Q91ZM7+Q9ES14); conditions: Compound concentration 10.0 uM
[11] = target: Platelet-derived growth factor receptor alpha (Homo sapiens) (UniProt P16234); conditions: Compound concentration 1000.0 nM
[12] = target: Ephrin type-A receptor 6 (Homo sapiens) (UniProt Q9UF33); conditions: Compound concentration 1000.0 nM
[13] = target: Cyclin-dependent kinase 4 (Homo sapiens) (UniProt P11802); conditions: Compound concentration 1000.0 nM
[14] = target: Tyrosine-protein kinase receptor TYRO3 (Homo sapiens) (UniProt Q06418); conditions: Compound concentration 1000.0 nM
[15] = target: Serine/threonine-protein kinase DCLK3 (Homo sapiens) (UniProt Q9C098); conditions: Compound concentration 1000.0 nM
[16] = target: Citron Rho-interacting kinase (Homo sapiens) (UniProt O14578); conditions: Compound concentration 1000.0 nM
[17] = target: Tyrosine-protein kinase receptor UFO (Homo sapiens) (UniProt P30530); conditions: Compound concentration 1000.0 nM
[18] = tested on: Phosphatidylinositol 4,5-bisphosphate 3-kinase catalytic subunit alpha isoform (Homo sapiens), P42336 [E545K]; conditions: Compound concentration 1000.0 nM
[19] = target: 5'-AMP-activated protein kinase catalytic subunit alpha-1 (Homo sapiens) (UniProt Q13131); conditions: Compound concentration 1000.0 nM
[20] = target: 5-hydroxytryptamine receptor 7 (Homo sapiens) (UniProt P34969); conditions: Compound concentration 10.0 uM
[21] = target: Serine/threonine-protein kinase 33 (Homo sapiens) (UniProt Q9BYT3); conditions: Compound concentration 1000.0 nM
[22] = target: Mitogen-activated protein kinase 14 (Homo sapiens) (UniProt Q16539); conditions: Compound concentration 1000.0 nM
[23] = target: Kappa-type opioid receptor (Homo sapiens) (UniProt P41145); conditions: Compound concentration 10.0 uM
[24] = target: Casein kinase I isoform alpha-like (Homo sapiens) (UniProt Q8N752); conditions: Compound concentration 1000.0 nM
[25] = target: cAMP-dependent protein kinase catalytic subunit beta (Homo sapiens) (UniProt P22694); conditions: Compound concentration 1000.0 nM
[26] = target: Epithelial discoidin domain-containing receptor 1 (Homo sapiens) (UniProt Q08345); conditions: Compound concentration 1000.0 nM
[27] = target: Tyrosine-protein kinase receptor Tie-1 (Homo sapiens) (UniProt P35590); conditions: Compound concentration 1000.0 nM
[28] = target: Serine/threonine-protein kinase pim-2 (Homo sapiens) (UniProt Q9P1W9); conditions: Compound concentration 1000.0 nM
[29] = target: Tyrosine-protein kinase JAK1 (Homo sapiens) (UniProt P23458); conditions: Compound concentration 1000.0 nM
[30] = target: Serine/threonine-protein kinase MRCK gamma (Homo sapiens) (UniProt Q6DT37); conditions: Compound concentration 1000.0 nM
[31] = target: Mitogen-activated protein kinase kinase kinase kinase 1 (Homo sapiens) (UniProt Q92918); conditions: Compound concentration 1000.0 nM
[32] = target: Calcium/calmodulin-dependent protein kinase type II subunit delta (Homo sapiens) (UniProt Q13557); conditions: Compound concentration 1000.0 nM
[33] = tested on: Mast/stem cell growth factor receptor Kit (Homo sapiens), P10721 [L576P]; conditions: Compound concentration 1000.0 nM
[34] = target: Epidermal growth factor receptor (Homo sapiens) (UniProt P00533); conditions: Compound concentration 1000.0 nM
[35] = target: Serine/threonine-protein kinase ICK (Homo sapiens) (UniProt Q9UPZ9); conditions: Compound concentration 1000.0 nM
[36] = target: D(3) dopamine receptor (Homo sapiens) (UniProt P35462); conditions: Compound concentration 10.0 uM
[37] = tested on: Phosphatidylinositol 4,5-bisphosphate 3-kinase catalytic subunit alpha isoform (Homo sapiens), P42336 [I800L]; conditions: Compound concentration 1000.0 nM
[38] = target: Proto-oncogene tyrosine-protein kinase Src (Homo sapiens) (UniProt P12931); conditions: Compound concentration 1000.0 nM
[39] = tested on: Epidermal growth factor receptor (Homo sapiens), P00533 [G719S]; conditions: Compound concentration 1000.0 nM
[40] = tested on: Receptor-type tyrosine-protein kinase FLT3 (Homo sapiens), P36888 [UNDEFINED MUTATION]; conditions: Compound concentration 1000.0 nM
[41] = target: Alpha-2B adrenergic receptor (Homo sapiens) (UniProt P18089); conditions: Compound concentration 10.0 uM
[42] = target: Calcium/calmodulin-dependent protein kinase type 1 (Homo sapiens) (UniProt Q14012); conditions: Compound concentration 1000.0 nM
[43] = target: Leukocyte tyrosine kinase receptor (Homo sapiens) (UniProt P29376); conditions: Compound concentration 1000.0 nM

Chain of Platelet-derived growth factor receptor alpha (Homo sapiens) (P16234 whole entry): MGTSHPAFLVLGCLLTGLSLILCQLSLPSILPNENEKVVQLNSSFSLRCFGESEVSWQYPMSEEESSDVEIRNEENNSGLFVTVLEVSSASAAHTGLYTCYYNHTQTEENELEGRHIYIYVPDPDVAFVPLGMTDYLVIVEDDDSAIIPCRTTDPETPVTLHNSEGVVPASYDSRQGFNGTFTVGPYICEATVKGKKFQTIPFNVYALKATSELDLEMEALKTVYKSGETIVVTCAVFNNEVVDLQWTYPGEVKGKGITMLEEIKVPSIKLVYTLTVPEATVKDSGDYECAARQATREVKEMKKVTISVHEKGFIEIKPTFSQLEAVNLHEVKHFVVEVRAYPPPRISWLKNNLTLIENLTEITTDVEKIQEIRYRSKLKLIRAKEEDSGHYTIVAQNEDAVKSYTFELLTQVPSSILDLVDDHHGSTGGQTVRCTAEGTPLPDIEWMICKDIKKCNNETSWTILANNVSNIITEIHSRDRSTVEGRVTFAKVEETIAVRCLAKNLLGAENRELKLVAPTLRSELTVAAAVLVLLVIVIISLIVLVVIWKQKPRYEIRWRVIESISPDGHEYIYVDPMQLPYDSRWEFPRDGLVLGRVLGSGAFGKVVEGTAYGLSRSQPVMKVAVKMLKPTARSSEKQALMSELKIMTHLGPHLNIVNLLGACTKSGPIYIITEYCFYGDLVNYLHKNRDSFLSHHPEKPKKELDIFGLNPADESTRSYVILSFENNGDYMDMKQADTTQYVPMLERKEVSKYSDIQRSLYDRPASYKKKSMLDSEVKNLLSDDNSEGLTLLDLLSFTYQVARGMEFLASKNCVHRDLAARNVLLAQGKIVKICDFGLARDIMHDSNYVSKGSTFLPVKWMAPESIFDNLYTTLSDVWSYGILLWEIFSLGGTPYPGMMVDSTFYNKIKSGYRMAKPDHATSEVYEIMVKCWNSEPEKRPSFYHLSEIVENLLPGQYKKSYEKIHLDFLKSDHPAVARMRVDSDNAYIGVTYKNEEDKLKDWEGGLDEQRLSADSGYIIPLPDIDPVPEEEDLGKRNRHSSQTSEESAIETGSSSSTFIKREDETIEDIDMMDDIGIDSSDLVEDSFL
Chain of Serine/threonine-protein kinase DCLK3 (Homo sapiens) (Q9C098 whole entry): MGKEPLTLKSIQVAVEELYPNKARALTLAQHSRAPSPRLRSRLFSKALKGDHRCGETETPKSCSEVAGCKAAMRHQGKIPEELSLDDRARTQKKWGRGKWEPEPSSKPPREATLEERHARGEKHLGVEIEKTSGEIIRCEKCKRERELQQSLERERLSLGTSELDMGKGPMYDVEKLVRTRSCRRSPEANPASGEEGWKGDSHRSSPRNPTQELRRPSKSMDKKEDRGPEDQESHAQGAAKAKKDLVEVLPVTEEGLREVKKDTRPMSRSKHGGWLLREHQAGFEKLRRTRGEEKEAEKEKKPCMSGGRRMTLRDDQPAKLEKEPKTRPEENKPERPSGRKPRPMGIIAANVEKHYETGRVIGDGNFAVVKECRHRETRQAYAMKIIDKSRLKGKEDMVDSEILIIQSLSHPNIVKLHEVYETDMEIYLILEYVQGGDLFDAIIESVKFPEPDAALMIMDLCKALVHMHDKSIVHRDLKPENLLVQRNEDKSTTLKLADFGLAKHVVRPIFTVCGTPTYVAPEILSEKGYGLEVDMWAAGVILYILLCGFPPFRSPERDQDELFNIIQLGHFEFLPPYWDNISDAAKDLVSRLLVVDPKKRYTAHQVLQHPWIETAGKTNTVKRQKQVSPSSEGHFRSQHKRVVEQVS
Chain of Alpha-2B adrenergic receptor (Homo sapiens) (P18089 whole entry): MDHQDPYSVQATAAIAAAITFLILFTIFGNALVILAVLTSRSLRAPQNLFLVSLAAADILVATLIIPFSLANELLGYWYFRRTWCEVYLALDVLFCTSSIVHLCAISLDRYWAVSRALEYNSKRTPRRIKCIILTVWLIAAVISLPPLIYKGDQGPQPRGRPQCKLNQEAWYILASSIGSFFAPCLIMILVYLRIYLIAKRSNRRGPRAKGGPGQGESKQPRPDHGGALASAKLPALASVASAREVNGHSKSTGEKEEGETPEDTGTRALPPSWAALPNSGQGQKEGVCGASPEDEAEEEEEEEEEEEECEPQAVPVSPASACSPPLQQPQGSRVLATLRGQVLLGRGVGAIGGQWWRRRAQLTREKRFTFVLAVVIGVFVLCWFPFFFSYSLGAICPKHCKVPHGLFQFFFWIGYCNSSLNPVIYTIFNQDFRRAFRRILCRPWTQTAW
Chain of Mast/stem cell growth factor receptor Kit (Homo sapiens) (P10721 whole entry): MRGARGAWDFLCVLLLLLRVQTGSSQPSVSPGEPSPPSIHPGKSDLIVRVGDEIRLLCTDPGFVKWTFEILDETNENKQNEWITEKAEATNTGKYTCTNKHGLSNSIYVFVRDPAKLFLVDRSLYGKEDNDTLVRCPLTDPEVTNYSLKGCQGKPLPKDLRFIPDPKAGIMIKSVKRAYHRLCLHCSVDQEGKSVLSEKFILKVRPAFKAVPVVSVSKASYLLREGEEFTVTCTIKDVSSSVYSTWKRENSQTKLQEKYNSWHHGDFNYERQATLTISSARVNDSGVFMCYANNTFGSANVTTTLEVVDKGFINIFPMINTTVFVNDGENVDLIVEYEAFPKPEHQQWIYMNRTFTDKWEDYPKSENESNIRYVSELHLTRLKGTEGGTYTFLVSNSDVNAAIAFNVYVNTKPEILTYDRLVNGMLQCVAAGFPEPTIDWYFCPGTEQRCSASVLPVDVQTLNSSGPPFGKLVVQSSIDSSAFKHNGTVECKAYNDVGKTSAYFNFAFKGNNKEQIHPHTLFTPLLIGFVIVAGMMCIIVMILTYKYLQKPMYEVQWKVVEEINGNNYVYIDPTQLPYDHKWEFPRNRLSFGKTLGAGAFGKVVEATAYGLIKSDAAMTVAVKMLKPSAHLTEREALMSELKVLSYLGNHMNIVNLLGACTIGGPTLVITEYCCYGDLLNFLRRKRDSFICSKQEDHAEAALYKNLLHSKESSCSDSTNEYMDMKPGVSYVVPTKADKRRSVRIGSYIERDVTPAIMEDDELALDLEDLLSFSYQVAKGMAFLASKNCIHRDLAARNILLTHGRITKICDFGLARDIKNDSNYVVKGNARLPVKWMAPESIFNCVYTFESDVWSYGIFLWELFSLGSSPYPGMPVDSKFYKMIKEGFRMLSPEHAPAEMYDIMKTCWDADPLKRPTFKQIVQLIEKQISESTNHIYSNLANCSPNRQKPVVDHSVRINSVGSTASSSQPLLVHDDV
Chain of Serine/threonine-protein kinase MRCK gamma (Homo sapiens) (Q6DT37 whole entry): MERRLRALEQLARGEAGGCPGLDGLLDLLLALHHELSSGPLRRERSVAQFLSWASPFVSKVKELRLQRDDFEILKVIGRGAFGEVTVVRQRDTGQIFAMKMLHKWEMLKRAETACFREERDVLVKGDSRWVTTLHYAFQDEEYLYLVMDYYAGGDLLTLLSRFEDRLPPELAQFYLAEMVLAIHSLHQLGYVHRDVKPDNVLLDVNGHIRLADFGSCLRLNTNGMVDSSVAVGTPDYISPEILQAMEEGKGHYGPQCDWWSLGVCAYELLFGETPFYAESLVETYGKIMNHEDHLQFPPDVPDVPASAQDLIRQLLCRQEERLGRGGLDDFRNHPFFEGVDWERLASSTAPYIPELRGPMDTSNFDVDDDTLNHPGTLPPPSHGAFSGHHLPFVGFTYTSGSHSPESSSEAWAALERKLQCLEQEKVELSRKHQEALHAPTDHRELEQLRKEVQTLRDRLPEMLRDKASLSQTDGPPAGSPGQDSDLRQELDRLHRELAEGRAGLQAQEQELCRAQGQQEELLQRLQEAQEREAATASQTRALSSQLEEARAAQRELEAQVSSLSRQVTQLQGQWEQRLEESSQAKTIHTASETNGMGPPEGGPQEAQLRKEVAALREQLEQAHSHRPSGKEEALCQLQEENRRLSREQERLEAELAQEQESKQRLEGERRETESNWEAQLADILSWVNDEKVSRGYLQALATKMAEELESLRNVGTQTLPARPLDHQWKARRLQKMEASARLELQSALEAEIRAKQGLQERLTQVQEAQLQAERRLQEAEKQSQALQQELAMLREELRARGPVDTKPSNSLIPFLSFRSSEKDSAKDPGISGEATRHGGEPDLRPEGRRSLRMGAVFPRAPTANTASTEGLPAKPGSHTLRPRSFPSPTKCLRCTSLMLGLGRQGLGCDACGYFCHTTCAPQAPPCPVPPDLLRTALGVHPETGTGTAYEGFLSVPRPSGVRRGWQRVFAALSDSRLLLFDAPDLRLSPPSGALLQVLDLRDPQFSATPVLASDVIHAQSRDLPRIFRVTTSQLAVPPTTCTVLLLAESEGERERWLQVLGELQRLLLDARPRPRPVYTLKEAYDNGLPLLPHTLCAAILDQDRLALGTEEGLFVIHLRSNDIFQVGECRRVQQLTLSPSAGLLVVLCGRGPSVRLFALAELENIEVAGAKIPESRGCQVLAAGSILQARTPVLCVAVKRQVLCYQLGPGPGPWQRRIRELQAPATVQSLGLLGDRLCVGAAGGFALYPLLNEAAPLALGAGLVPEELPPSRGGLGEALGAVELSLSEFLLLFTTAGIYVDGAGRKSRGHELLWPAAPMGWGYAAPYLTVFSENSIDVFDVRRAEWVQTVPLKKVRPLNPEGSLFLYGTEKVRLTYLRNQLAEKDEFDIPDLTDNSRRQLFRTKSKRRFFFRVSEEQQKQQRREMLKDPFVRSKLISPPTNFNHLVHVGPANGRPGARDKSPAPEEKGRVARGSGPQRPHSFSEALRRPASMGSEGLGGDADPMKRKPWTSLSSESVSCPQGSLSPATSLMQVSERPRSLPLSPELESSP
Chain of Cyclin-dependent kinase 4 (Homo sapiens) (P11802 whole entry): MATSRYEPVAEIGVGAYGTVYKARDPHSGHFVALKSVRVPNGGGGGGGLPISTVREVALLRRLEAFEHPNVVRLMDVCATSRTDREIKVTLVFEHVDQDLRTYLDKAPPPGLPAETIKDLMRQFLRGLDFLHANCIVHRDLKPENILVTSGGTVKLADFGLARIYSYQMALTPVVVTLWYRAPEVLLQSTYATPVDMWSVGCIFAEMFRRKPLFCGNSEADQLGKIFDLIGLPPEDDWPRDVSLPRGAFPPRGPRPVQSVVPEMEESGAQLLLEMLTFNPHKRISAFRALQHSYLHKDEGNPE
Chain of Mast/stem cell growth factor receptor Kit (Homo sapiens), P10721 [L576P] (P10721 whole entry L576P): as the sequence (P10721 whole entry) above, with L576P counted along it

SMILES: CCS(=O)(=O)c1cc2cc(C[C@](O)(CC(C)(C)c3ccc(F)cc3C(N)=O)C(F)(F)F)[nH]c2cn1
- residual activity [1]: 100%
- residual activity [2]: 100%
- residual activity [3]: 89%
- residual activity [4]: 100%
- residual activity [5]: 100%
- residual activity [6]: 100%
- residual activity [7]: 100%
- residual activity [8]: 45%
- residual activity [9]: 100%
- inhibition [10]: -1.62%
- residual activity [11]: 82%
- residual activity [12]: 100%
- residual activity [13]: 97%
- residual activity [14]: 81%
- residual activity [15]: 100%
- residual activity [16]: 100%
- residual activity [17]: 89%
- residual activity [18]: 80%
- residual activity [19]: 100%
- inhibition [20]: 4.98%
- residual activity [21]: 97%
- residual activity [22]: 100%
- inhibition [23]: 23.4%
- residual activity [24]: 100%
- residual activity [25]: 100%
- residual activity [26]: 94%
- residual activity [27]: 100%
- residual activity [28]: 100%
- residual activity [29]: 96%
- residual activity [30]: 100%
- residual activity [31]: 100%
- residual activity [32]: 100%
- residual activity [33]: 83%
- residual activity [34]: 81%
- residual activity [35]: 100%
- inhibition [36]: 7.81%
- residual activity [37]: 73%
- residual activity [38]: 100%
- residual activity [39]: 100%
- residual activity [40]: 91%
- inhibition [41]: 24.7%
- residual activity [42]: 86%
- residual activity [43]: 97%

SMILES: CCS(=O)(=O)c1cc2cc(C[C@@](O)(CC(C)(C)c3ccc(F)cc3C(N)=O)C(F)(F)F)[nH]c2cn1
- residual activity [1]: 95%
- residual activity [2]: 100%
- residual activity [3]: 100%
- residual activity [4]: 100%
- residual activity [5]: 73%
- residual activity [6]: 77%
- residual activity [7]: 83%
- residual activity [8]: 53%
- residual activity [9]: 100%
- inhibition [10]: 3.48%
- residual activity [11]: 99%
- residual activity [12]: 100%
- residual activity [13]: 100%
- residual activity [14]: 92%
- residual activity [15]: 100%
- residual activity [16]: 96%
- residual activity [17]: 100%
- residual activity [18]: 79%
- residual activity [19]: 100%
- inhibition [20]: 4.44%
- residual activity [21]: 91%
- residual activity [22]: 97%
- inhibition [23]: 28.3%
- residual activity [24]: 99%
- residual activity [25]: 99%
- residual activity [26]: 100%
- residual activity [27]: 66%
- residual activity [28]: 99%
- residual activity [29]: 89%
- residual activity [30]: 96%
- residual activity [31]: 100%
- residual activity [32]: 81%
- residual activity [33]: 100%
- residual activity [34]: 96%
- residual activity [35]: 97%
- inhibition [36]: 1.8%
- residual activity [37]: 70%
- residual activity [38]: 100%
- residual activity [39]: 100%
- residual activity [40]: 78%
- inhibition [41]: 6.5%
- residual activity [42]: 57%
- residual activity [43]: 100%
